From patent publication US20240050408A1, “USE OF MGLUR5 ANTAGONISTS FOR TREATING AMPHETAMINE ADDICTION” (NOVARTIS AG, priority 2020, published 2024)

How the values were obtained:
Format in all cases: in vivo, human
[1] = test system: patients with Cocaine Use Disorder (CUD); experiment: Phase 2 trial: proportion of cocaine use days by TLFB self-report; conditions: for difference between groups in monthly proportion of cocaine use: MMRM
Protocol: This was a Phase 2 randomized, patient- and investigator-blinded, placebo-controlled, parallel-group study.
Patients diagnosed with Cocaine Use Disorder (CUD) according to Diagnostic and Statistical Manual of Mental Disorders, 5th Ed.
(§1) This study was conducted in patients with CUD and consisted of about a 21-day screening period followed by a 7-day baseline period, a 98-day outpatient treatment period, and an end of study visit evaluation about 14 days after the last study drug administration ([…]. A). Study treatment was taken twice daily (separated by about 12-hour intervals) with food. For patients in the mavoglurant arm [mavoglurant (free form) provided as modified release formulation (e.g. in WO2014/199316)], an uptitration regimen was performed for 14 days (50 mg b.i.d. from Days 1 to 7 and 100 mg b.i.d from Days 8 to 14) and was followed by 200 mg b.i.d for 84 days.
(§2) The primary endpoint was the proportion of cocaine use days during the treatment period, assessed by timeline followback [TLFB] cocaine self-report report. The secondary endpoints included a weekly urine analysis for a log-transformed quantitative measure of cocaine metabolite benzoylecgonine (BE), safety assessments (clinical parameters, suicidal ideation, adverse events [AE] and serious adverse events [SAE] at every visit), and pre- and post-dose levels of mavoglurant in the plasma. Exploratory endpoints included Clinical Global Impression (CGI; 2 components: CGI-S [rated illness severity], CGI-I [rated change from baseline]).
For the primary endpoint, a Bayesian analysis was conducted on the proportion of cocaine use days. It was assumed to be a continuous outcome with a normal distribution. The proportion of cocaine use days over the treatment period was analyzed using an analysis of covariance (ANCOVA) model with baseline use as a covariate. The profiles of consumption over time were compared between treatment groups through analyses of longitudinal data (weekly use and monthly use) using linear mixed model for repeated measures (MMRM). The model evaluated the posterior probability that the difference in proportions of cocaine use days between mavoglurant and placebo was <0 and that it was <−10%. A difference of 10% of days was deemed the minimal clinically relevant effect and a difference of 20% would be a very promising effect based on the literature in this indication. The study was deemed to show a positive signal of efficacy if the following two proof of concept (PoC) criteria were met:
The primary endpoint was the proportion of cocaine use days by TLFB during the treatment period (Day 1 to last day of treatment). For each subject, the proportion of cocaine use days was calculated by dividing the number of days of cocaine use during the treatment period with the treatment period, i.e., 98 days for completers and number of days between Day 1 and day of last dose in case of premature discontinuation of study treatment. Cocaine consumption was recorded daily (Yes/No) using the TLFB during the entire study.
Patient Reported Outcome included: • 1. The TLFB cocaine: is a cocaine assessment method that obtains estimates of daily cocaine intake and has been evaluated with clinical and nonclinical populations. Using a calendar, people provide retrospective estimates of their daily cocaine use over a specified time period that can vary up to 12 months from the interview date. Several memory aids can be used to enhance recall (e.g., calendar; key dates serve as anchors for reporting cocaine use). […] The method is recommended for use when relatively precise estimates of cocaine use are necessary, especially when a complete use pre-posttreatment). Clinically, the TLFB can be used to provide feedback about one's cocaine consumption in an effort to increase a client's motivation to change. • 2. […]

[2] = test system: patients with Cocaine Use Disorder (CUD); experiment: Phase 2 trial: quantitative urine measurement of benzoylecgonine (BE); conditions: 98-day administration, P=0.025
Protocol: as §1
as §2, with “Exploratory endpoints included Clinical Global Impression (CGI; 2 components: CGI-S [rated illness severity], CGI-I [rated change from baseline]).” left out
Two urine samples per week provided a log-transformed quantitative measure of BE (cocaine's metabolite). […]

[3] = Phase 2 trial: safety and adverse events
Protocol: as §1
Data for vital signs, electrocardiogram (ECG) and clinical laboratory evaluations were summarized by treatment and visit/time. Mavoglurant plasma concentrations were recorded at pre-dose and 2 hour (±1 hour) sampling window after the morning dose and summary statistics for concentrations were provided for plasma.
Data for vital signs (BP, pulse rate, body temperature), ECGs, and clinical laboratory evaluations were listed by treatment, subject, visit/time; abnormalities were flagged (if ranges were available).
The number and percentage of subjects with AEs are tabulated by body system and PT with a breakdown by treatment. A subject with multiple AEs within body system was only counted once towards the total of this body system and treatment.
Patient Reported Outcome included: • 1. The TLFB cocaine: is a cocaine assessment method that obtains estimates of daily cocaine intake and has been evaluated with clinical and nonclinical populations. Using a calendar, people provide retrospective estimates of their daily cocaine use over a specified time period that can vary up to 12 months from the interview date. Several memory aids can be used to enhance recall (e.g., calendar; key dates serve as anchors for reporting cocaine use). […] The method is recommended for use when relatively precise estimates of cocaine use are necessary, especially when a complete use pre-posttreatment). Clinically, the TLFB can be used to provide feedback about one's cocaine consumption in an effort to increase a client's motivation to change. • 2. The TLFB alcohol: is a drinking assessment method that obtains estimates of daily drinking and has been evaluated with clinical and nonclinical populations. Using a calendar, people provide retrospective estimates of their daily drinking over a specified time period that can vary up to 12 months from the interview date. Several memory aids can be used to enhance recall (e.g., calendar; key dates serve as anchors for reporting drinking; standard drink conversion). […] The method is recommended for use when relatively precise estimates of drinking are necessary, especially when a complete picture of drinking days (i.e., high- and low-risk days) is needed (evaluating drinking pre/post-treatment). Clinically, the TLFB can be used to provide feedback about one's drinking in an effort to increase a client's motivation to change. Overall, the Alcohol TLFB method provides a relatively accurate portrayal of drinking, and has both clinical and research utility. • 3. The BDI-II: is instrument endorsed by the National Institute for Health and Clinical Excellence for use in primary care in measuring baseline depression severity and responsiveness to treatment. • 4. The STAI: is an assessment tool for measuring the presence and severity of current symptoms of anxiety and a generalized propensity to be anxious. There are 2 subscales within this measure. First, the State Anxiety Scale (S-Anxiety) evaluates the current state of anxiety, asking how respondents feel “right now,” using items that measure subjective feelings of apprehension, tension, nervousness, worry, and activation/arousal of the autonomic nervous system. […]

## COC(=O)N1CC[C@@H]2[C@H]1CCC[C@@]2(O)C#Cc1cccc(C)c1 [mavoglurant, (-)-(3aR,4S,7aR)-4-Hydroxy-4-m-tolylethynyl-octahydro-indole-1-carboxylic acid methyl ester]
[1]; 98-day administration, P=0.021, listed as Mavoglurant
  cocaine use by TLFB, difference mavoglurant-placebo (result in words): reduced cocaine consumption significantly
[1]; Bayesian analysis over the treatment period (14 weeks), criterion met (P>0.90)
  P(θmavoglurant−θplacebo<0|data), PoC criterion 1: 0.999
[1]; Bayesian analysis over the treatment period (14 weeks), criterion not met (P<0.50)
  P(θmavoglurant−θplacebo<−10%|data), PoC criterion 2: 0.366
[1]; Month 2, P=0.042
  difference between groups in monthly proportion of cocaine use: 8%
[1]; Month 3, P=0.003
  difference between groups in monthly proportion of cocaine use: 14%
[1]; cocaine TLFB, 98-day administration (50/100 mg b.i.d. uptitration, then 200 mg b.i.d. 84 days, modified release), mavoglurant vs placebo, Bayesian analysis
  posterior probability in reducing cocaine use, treatments difference <0: 99.0%
[1]; cocaine TLFB, 98-day administration, mavoglurant vs placebo, Bayesian analysis
  posterior probability in reducing cocaine use, treatments difference <−10%: 36.6%
[1]; over the treatment period (14 weeks), mavoglurant vs placebo
  difference between groups in proportion of cocaine use days: 8.7%
[1]; over the treatment period, FIG. 2B
  observed difference between mavoglurant and placebo in proportion of cocaine use days: −0.087
[2]
  cocaine consumption as assessed by urine benzoylecgonine (BE) vs placebo: significantly lower levels of BE in urine
[2]; listed as Mavoglurant
  cocaine consumption as assessed by urine benzoylecgonine (BE) vs placebo: significantly reduced cocaine consumption
[3]; CUD patients, 98-day treatment
  overall AE rate vs placebo group: comparable
  overall safety and tolerability: safe and well tolerated
  rate of psychiatric symptoms vs placebo group: higher rate of psychiatric symptoms
  vital signs, ECGs, clinical safety laboratory parameters: no significant findings
[3]; CUD patients, 98-day treatment, listed as Mavoglurant
  overall safety and tolerability: safe and well-tolerated
[3]; mavoglurant group
  deaths or SAEs: no deaths or SAEs
